Test results: patent US7196083B2, “Heteropolycyclic inhibitors of protein kinases” (priority 2000, dated 2007)

molecular target: PKB, full-length recombinant bovine protein, alpha form (Bos taurus, UniProt Q01314); experiment: PKB inhibition in vitro enzyme assay (radioactive phosphate incorporation, scintillation counting); assay type: biochemical; details: not given
Sequence (Q01314 whole entry): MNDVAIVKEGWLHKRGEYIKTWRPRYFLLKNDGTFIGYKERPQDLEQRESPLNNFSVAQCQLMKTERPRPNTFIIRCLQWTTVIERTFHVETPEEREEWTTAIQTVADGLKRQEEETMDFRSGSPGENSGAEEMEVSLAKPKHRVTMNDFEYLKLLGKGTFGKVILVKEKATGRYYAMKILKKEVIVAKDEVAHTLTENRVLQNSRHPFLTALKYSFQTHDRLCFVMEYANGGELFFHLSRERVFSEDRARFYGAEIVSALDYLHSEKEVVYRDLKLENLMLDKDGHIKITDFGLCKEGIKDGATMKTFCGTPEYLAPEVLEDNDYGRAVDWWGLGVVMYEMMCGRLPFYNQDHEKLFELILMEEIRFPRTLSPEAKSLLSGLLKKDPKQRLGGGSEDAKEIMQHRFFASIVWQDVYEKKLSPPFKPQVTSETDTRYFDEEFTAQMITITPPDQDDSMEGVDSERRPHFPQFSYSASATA

Row | Structure (SMILES) | PKB inhibition in in vitro enzyme assay (in words)
1 | O=C1c2ccccc2-c2nn3nnnc3nc21 [KP-17483] | found to inhibit PKB

same assay, conditions: PKB in vitro enzyme assay, 15 min at room temperature

Row | Structure (SMILES) | IC50 [µM]
2 | O=C1c2ccccc2-c2nc3c(nc21)CCCC3 [KP-23172-015] | > 100
3 | O=C1c2ccccc2-c2nccnc21 [KP-23172-016] | > 100
4 | Cc1cc2nc3c(nc2cc1C)-c1ccccc1/C3=N\Nc1ccccc1 [KP-23172-017] | > 100
5 | c1ccc2c(c1)[nH]c1nn3nnnc3nc12 [KP-23172-018] | > 100
6 | N#Cc1nc2c(nc1C#N)-c1ccccc1C2=O [KP-23172-019] | > 100
7 | O=C1c2cc3ccccc3cc2-c2nc3nnnn3nc21 [KP-23172-020] | > 100
8 | O=C(O)c1nc2c(nc1C(=O)O)-c1ccccc1C2=O [KP-23172-021] | > 100
9 | O=c1c2ccccc2c2nc3c(=S)nc(S)c3nc12 [KP-23172-022] | > 100
10 | N/N=C1/c2ccccc2-c2nc3nnnn3nc21 [KP-23172-023] | > 100
11 | c1ccc(N/N=C2/c3ccccc3-c3nc4nnnn4nc32)cc1 [KP-23172-024] | > 100
12 | c1ccc(N/N=C2\C(=N/Nc3ccccc3)Nc3ccccc32)cc1 [KP-23172-025] | > 100
13 | O=C1c2ccccc2-c2nc3cc4ccccc4cc3nc21 [KP-23172-026] | > 100
14 | N#CC(=O)N/N=C1/c2ccccc2-c2nc3nnnn3nc21 [KP-23172-027] | > 100
15 | Cc1ccc2nc3c(nc2c1)-c1ccccc1C3=O [KP-23172-028] | > 100
16 | Cc1ccc2nc3c(nc2c1)C(=O)c1ccccc1-3 [KP-23172-029] | > 100
17 | O=C1c2ccccc2-c2nc3c4ccccc4c4ccccc4c3nc21 [KP-23172-31] | > 100

Further lines, results first:

Row | IC50 [µM] | Structure (SMILES)
18 | 15 | O=C1c2ccccc2-c2nn3nnnc3nc21 [KP-17483]
19 | > 100 | O=C1c2ccccc2-c2nc3c(O)cccc3nc21 [KP-23172-001]
20 | > 100 | O=C(O)c1ccc2nc3c(nc2c1)-c1ccccc1C3=O [KP-23172-002]
21 | > 100 | O=C(c1ccccc1)c1ccc2nc3c(nc2c1)-c1ccccc1C3=O [KP-23172-003]
22 | > 100 | O=C1c2ccccc2-c2nc3c(O)nc(O)nc3nc21 [KP-23172-004]
23 | > 100 | Cn1c(=O)c2nc3c(nc2n(C)c1=O)C(=O)c1ccccc1-3 [KP-23172-005]
24 | > 100 | O=C1c2ccccc2-c2nc3cc(Cl)c(Cl)cc3nc21 [KP-23172-006]
25 | > 100 | Cc1cc2nc3c(nc2cc1C)-c1ccccc1C3=O [KP-23172-007]
26 | > 100 | c1ccc2c(c1)Cc1nn3nnnc3nc1-2 [KP-23172-008]
27 | > 100 | O=C1c2ccccc2-c2nc3c(O)ncnc3nc21 [KP-23172-009]
28 | > 100 | Oc1ncnc2nc3c(nc12)CCc1ccccc1-3 [KP-23172-010]
29 | > 100 | c1ccc2c(c1)CCc1nc3nnnn3nc1-2 [KP-23172-011]
30 | > 100 | Oc1cccc2nc3c(nc12)CCc1ccccc1-3 [KP-23172-012]
31 | > 100 | Cc1cc2nc3c(nc2cc1C)-c1ccccc1CC3 [KP-23172-013]
32 | 20 | COc1ccc2c(c1)-c1nc3nnnn3nc1C2=O [KP-23172-030]

test system: A-549 (human lung carcinoma); experiment: [3H] thymidine uptake cell proliferation assay, A549; assay type: cell-based; details: A459 cells, read-out: Cell Proliferation in A459 IC50 in nm

Row | Structure (SMILES) | IC50 [µM]
33 | O=C1c2ccccc2-c2nc3c(nc21)CCCC3 [KP-23172-015] | > 10
34 | O=C1c2cc3ccccc3cc2-c2nc3nnnn3nc21 [KP-23172-020] | 0.1
35 | O=C(O)c1nc2c(nc1C(=O)O)-c1ccccc1C2=O [KP-23172-021] | > 10
36 | N/N=C1/c2ccccc2-c2nc3nnnn3nc21 [KP-23172-023] | 0.5
37 | c1ccc(N/N=C2/c3ccccc3-c3nc4nnnn4nc32)cc1 [KP-23172-024] | > 10
38 | N#CC(=O)N/N=C1/c2ccccc2-c2nc3nnnn3nc21 [KP-23172-027] | 0.5
39 | Cc1ccc2nc3c(nc2c1)-c1ccccc1C3=O [KP-23172-028] | > 10
40 | Cc1ccc2nc3c(nc2c1)C(=O)c1ccccc1-3 [KP-23172-029] | > 10

The remaining lines, values ahead:

Row | IC50 [µM] | Structure (SMILES)
41 | > 10 | O=C1c2ccccc2-c2nn3nnnc3nc21 [KP-17483]
42 | > 10 | O=C1c2ccccc2-c2nc3c(O)cccc3nc21 [KP-23172-001]
43 | > 10 | O=C(O)c1ccc2nc3c(nc2c1)-c1ccccc1C3=O [KP-23172-002]
44 | > 10 | O=C(c1ccccc1)c1ccc2nc3c(nc2c1)-c1ccccc1C3=O [KP-23172-003]
45 | > 10 | O=C1c2ccccc2-c2nc3c(O)nc(O)nc3nc21 [KP-23172-004]
46 | > 10 | Cn1c(=O)c2nc3c(nc2n(C)c1=O)C(=O)c1ccccc1-3 [KP-23172-005]
47 | > 10 | O=C1c2ccccc2-c2nc3cc(Cl)c(Cl)cc3nc21 [KP-23172-006]
48 | > 10 | Cc1cc2nc3c(nc2cc1C)-c1ccccc1C3=O [KP-23172-007]
49 | > 10 | c1ccc2c(c1)Cc1nn3nnnc3nc1-2 [KP-23172-008]
50 | > 10 | O=C1c2ccccc2-c2nc3c(O)ncnc3nc21 [KP-23172-009]
51 | 0.046 | COc1ccc2c(c1)-c1nc3nnnn3nc1C2=O [KP-23172-030]

test system: B16-F1 (murine melanoma); experiment: [3H] thymidine uptake cell proliferation assay, B16F1; assay type: cell-based; details: Mus musculus, read-out: Cell Proliferation Effects (IC50 (nM))

Row | Structure (SMILES) | IC50 [nM]
52 | O=C1c2ccccc2-c2nn3nnnc3nc21 [KP-17483] | 80

test system: B16-F10 (murine melanoma); experiment: [3H] thymidine uptake cell proliferation assay, B16F10; assay type: cell-based; details: Mus musculus, read-out: Cell Proliferation Effects (IC50 (nM))

Row | Structure (SMILES) | IC50 [nM]
53 | O=C1c2ccccc2-c2nn3nnnc3nc21 [KP-17483] | 750

test system: DU-145 (human carcinoma); experiment: [3H] thymidine uptake cell proliferation assay, DU145; assay type: cell-based; details: read-out: Cell Proliferation Effects (IC50 (nM))

Row | Structure (SMILES) | IC50 [nM]
54 | O=C1c2ccccc2-c2nn3nnnc3nc21 [KP-17483] | 50

test system: HT-29 human colon carcinoma; experiment: [3H] thymidine uptake cell proliferation assay, HT29; assay type: cell-based; details: read-out: Cell Proliferation Effects (IC50 (nM))

Row | Structure (SMILES) | IC50 [nM]
55 | O=C1c2ccccc2-c2nn3nnnc3nc21 [KP-17483] | 500

test system: LL2 Lewis Lung human lung carcinoma; experiment: [3H] thymidine uptake cell proliferation assay, LL2; assay type: cell-based; details: LL/2, read-out: Cell Proliferation Effects (IC50 (nM))

Row | Structure (SMILES) | IC50 [nM]
56 | O=C1c2ccccc2-c2nn3nnnc3nc21 [KP-17483] | 750

test system: M3 murine melanoma cells; experiment: [3H] thymidine uptake cell proliferation assay, M3; assay type: cell-based; details: Mus musculus, read-out: Cell Proliferation Effects (IC50 (nM))

Row | Structure (SMILES) | IC50 [nM]
57 | O=C1c2ccccc2-c2nn3nnnc3nc21 [KP-17483] | 30

test system: PC3 (human prostate carcinoma); experiment: [3H] thymidine uptake cell proliferation assay, PC3; assay type: cell-based; details: PC-3, read-out: Cell Proliferation Effects (IC50 (nM))

Row | Structure (SMILES) | IC50 [nM]
58 | O=C1c2ccccc2-c2nn3nnnc3nc21 [KP-17483] | 250

test system: SKOV-3 (human ovarian carcinoma); experiment: [3H] thymidine uptake cell proliferation assay, SKOV3; assay type: cell-based; details: SK-OV-3, read-out: Cell Proliferation Effects (IC50 (nM))

Row | Structure (SMILES) | IC50 [nM]
59 | O=C1c2ccccc2-c2nn3nnnc3nc21 [KP-17483] | 300

test system: U-87 (human glioma); experiment: [3H] thymidine uptake cell proliferation assay, U87; assay type: cell-based; details: U87, read-out: Cell Proliferation IC50 in nm (starred: tested in U7 cells, not U87), read-out: Cell Proliferation IC50 in nm (starred: tested in U7 cells, not A459)
Description: Compounds were added to culture at mid-logarithmic growth and incubated for 20 hours. (N=8 for the values+standard errors). […] Cell lines A-549 (human lung carcinoma), B16-F1 (murine melanoma), B16-F10 (murine melanoma), DU-145 (human […] carcinoma), LS-180 (human colon carcinoma), PC3 (human prostate carcinoma), SKOV-3 (human ovarian carcinoma), U-87 (human glioma), and NIH-3T3 (murine embryonic fibroblasts) were all cultured in DMEM supplemented with 10% fetal bovine serum. M3 murine melanoma cells were cultured in DMEM/F12 1:1, and HT-29 human colon carcinoma and LL2 Lewis Lung […] lung carcinoma were cultured in RPMI1640. All the foregoing cell lines were obtained from ATCC. All cells were passaged regularly using 0.25% Trypsin-EDTA in order to maintain cells at exponential growth for various experiments. LS 180 cells were passaged without trypsin and were physically scraped off the culture flasks. In vitro [^3H] thymidine uptake assay. Proliferation can be measured by quantifying the amount of [^3H] thymidine uptake into cells using a β-counter, and therefore is a well-established diagnostic tool to measure DNA synthesis within the cells. […] The cells were allowed to adhere to the plates via incubation at 37° C. in 5% CO2 for 12–14 hours. […] Then, 10 μL of the compound was added to the pre-existing 90 μL per well, and incubated further at 37° C. in 5% CO2 for 20 hours. To measure thymidine incorporation, cells were fixed onto the culture wells by slowly adding ¼^th volume of cold 50% TCA into each well (25 μL to each well) and incubated for 1–2 hours at 4° C. Wells were washed 5 times with tap water to remove any free [^3H] thymidine in the media, and air-dried completely at room temperature. Then, 100 μL of scintillation fluid was added to each well and the activity counted using a Wallac Microbeta Counter.

Row | Structure (SMILES) | IC50 [nM]
60 | c1ccc2c(c1)[nH]c1nn3nnnc3nc12 [KP-23172-018] | > 10000
61 | N#Cc1nc2c(nc1C#N)-c1ccccc1C2=O [KP-23172-019] | > 10000
62 | O=c1c2ccccc2c2nc3c(=S)nc(S)c3nc12 [KP-23172-022] | 5000

same assay, conditions: U-87 MG, U87, read-out: Cell Proliferation Effects (IC50 (nM))

Row | Structure (SMILES) | IC50 [nM]
63 | O=C1c2ccccc2-c2nn3nnnc3nc21 [KP-17483] | 50

test system: NIH-3T3 (murine embryonic fibroblasts); experiment: [3H] thymidine uptake cell proliferation assay, NIH3T3; assay type: cell-based; details: Mus musculus; NIH3T3, non-tumorigenic cell line; read-out: Cell Proliferation Effects (IC50 (nM))

Row | Structure (SMILES) | IC50 [nM]
64 | O=C1c2ccccc2-c2nn3nnnc3nc21 [KP-17483] | 200

test system: not given; experiment: not given; details: for comparison; cited from earlier work

Row | Structure (SMILES) | 1:1 binding constant (reported in the literature)
65 | Clc1ccc(COC(Cn2ccnc2)c2ccc(Cl)cc2Cl)c(Cl)c1 (centres unmarked) [miconazole] | 363
